Measured values taken from PubChem BioAssay AID2305 (GlaxoSmithKline (GSK), 2010).

system: P. falciparum 3D7 growth, pLDH absorbance; assay: P. falciparum 3D7 growth inhibition, dose response, strain 3D7 (AID 2305)

In order of falling IC50:
1. CCn1nc(C(=O)NC2CCOc3ccccc32)c2ccccc2c1=O (configuration not stated)  1.23 µM
2. CC(C)N1CCC(N(Cc2ccc(-c3ccc(C(F)(F)F)cc3)cc2)C(=O)Cn2c(SCc3cccc(F)c3F)cc(=O)c3c2CCC3)CC1  1.16 µM
3. CCOc1ccc2c(c1)N(C(=O)C=Cc1ccccc1)C(C)(C)c1ssc(=S)c1-2  1.15 µM
4. C=C(C)Cn1cc(C2CCN(CCCCNC(=O)c3sc(-c4ccc(Cl)cc4Cl)nc3CO)CC2)c2ccccc21  1.15 µM
5. c1ccc(CNc2nc(NCCc3cnc[nH]3)nc(NCc3cccc4ccccc34)n2)cc1  1.11 µM
6. Cc1nc2nc(N)nc(N)c2c(C)c1Cc1cccc(C(N)=O)c1  1.08 µM
7. CC(C)c1sc(N2CCN(C)CC2)nc1C(=O)NCCc1ccc(Cl)c(Cl)c1  1.05 µM
8. O=C(Nc1cccc(C(F)(F)F)c1)c1cc([N+](=O)[O-])cc2cn[nH]c12  0.99 µM
9. C=C[C@]1(C)C[C@@H](OC(=O)CNC[C@@H](O)CN2C[C@H](c3ccnc4ccc(OC)nc34)OC2=O)[C@]2(C)[C@H](C)CC[C@]3(CCC(=O)[C@H]32)[C@@H](C)[C@@H]1O  0.95 µM
10. Cc1ccc(/C=C/C(=O)NCCCCCN2CCCN(C(=O)Nc3ccc(Cl)c(Cl)c3)CC2)cc1  0.94 µM
11. CN(C)CCN(Cc1ccccc1-c1ccc(CNCCc2ccccc2)cc1)C(=O)NC1CCCCC1  0.91 µM
12. Oc1cccc2c1CC(NCc1ccccc1)CC2 (configuration not stated)  0.89 µM
13. COc1ccc2nccc(NCC3(O)CCN(CC(O)c4ccc5c(c4)NC(=O)CS5)CC3)c2n1 (configuration not stated)  0.83 µM
14. Cc1nnsc1C(=O)Nc1ccc(-c2ccc(-c3nc4ccccc4[nH]3)s2)cc1  0.82 µM
15. CN(C)CCN(Cc1ccc(-c2ccc(CNCCc3ccccc3)cc2)nc1)C(=O)CCC1CCCC1  0.8 µM
16. CCCCCCCn1c(=N)n(CC(O)c2ccc(Cl)c(Cl)c2)c2ccccc21 (configuration not stated)  0.78 µM
17. CC[C@H](C)CNC(=O)c1cncc(-c2cccc(CN(C)C3CCN(C)CC3)c2)c1  0.78 µM
18. Cc1c(N=O)cc(C(C)(C)C)c(O)c1C(=O)Nc1ccc([N+](=O)[O-])cc1Cl  0.77 µM
19. CC(C)c1ccc(NC(=O)c2cccc(CN3CCCN(Cc4cccc(O)c4)CC3)c2)cc1  0.77 µM
20. Cc1ccc(NC(=O)Nc2ccc(Cl)cc2)cc1-c1cccc(C(=O)Nc2ccc(F)cc2)c1  0.74 µM
21. Cc1cc(-c2ccc(CNCc3ccc(F)cc3)cc2)ccc1S(=O)(=O)NCCN1CCCC1  0.72 µM
22. COc1cc(NC(=O)N2CCc3ccc(OCCC4CCCN4C)cc32)cc(C(F)(F)F)c1 (configuration not stated)  0.71 µM
23. O=C(/C=C/c1ccc(Cl)c(Cl)c1)N1CCN(C(=O)Nc2cccc(C(F)(F)F)c2)CC1  0.7 µM
24. CCOc1cc(C(=O)Nc2ccc3nc(N(CC)CC)cc(C)c3c2)cc(OCC)c1OCC  0.7 µM
25. CC(C)CCn1c(Sc2ccc(C#N)c([N+](=O)[O-])c2)nnc1-c1cccc(Cl)c1  0.67 µM
26. CCC(=O)N(c1ccccc1)C1CCN(CCCC(NC(=O)Nc2cc(C(F)(F)F)cc(C(F)(F)F)c2)c2ccc(Cl)c(Cl)c2)CC1 (configuration not stated)  0.67 µM
27. Oc1ccc(Cl)c2c1C(c1ccccc1)=NCC2  0.54 µM
28. CCOc1ccc(NC(=O)c2cn3nc(-c4ccc(OCC)cc4)cc3nc2C2CCNCC2)cc1  0.51 µM
29. CCSc1nc2sc3c(c2c(=O)n1-c1ccccc1)CCN(C)C3  0.46 µM
30. c1ccc(Oc2ccc(Nc3ccnc4cc(-c5ccc(CNCCN6CCOCC6)o5)ccc34)cc2)cc1  0.44 µM
31. CCN(CCC1(c2ccc(Cl)c(Cl)c2)CN(C(=O)c2cc(OC)c(OC)c(OC)c2)CCO1)[C@@H]1C[C@@H]2c3ccccc3C[C@@H]21 (some centres not stated)  0.43 µM
32. O=c1[nH]ccc2nc(N[C@@H]3CCNC3)nc(Nc3ccc4c(c3)S(=O)(=O)CC4)c12  0.38 µM
33. CCn1cc(-c2nc(-c3cc(OC)cc(OC)c3)no2)c(=O)c2ccccc21  0.34 µM
34. CCC(C)Oc1ccc2nc(N)nc(N)c2c1Cl (configuration not stated)  0.18 µM
35. CN1CCN(c2ccnc3ccc(NC(=O)Nc4cccc5c(Br)cccc45)cc23)CC1  0.15 µM
36. CN1CCC(N2CCN(Cc3cccc(-c4ccc(-c5nc6ccc(C(F)(F)F)cc6[nH]5)cc4)c3)CC2)CC1  0.14 µM
37. N=C(N)c1ccc(NN=Cc2ccc(Oc3ccc(C(=N)N)cc3)cc2)cc1  0.09 µM
